Data taken from US10398783B2, “Antiproliferative compounds and conjugates made therefrom” (BRISTOL-MYERS SQUIBB COMPANY, priority 2016, dated 2019).

Assays:
Assay type in all cases: cell-based, human
[1] = test system: colon cancer (HCT116) cell line; assay: 72 hr ATP luminescence cell proliferation inhibition assay, HCT116
Procedure: (§1) Proliferation inhibition was measured using a 72 hr ATP luminescence assay (Cheng et al., U.S. Pat. No. 8,394,922 B2 (2013)). The antiproliferative effects are reported as IC50's, i.e., the concentration of compound that produces a 50% inhibitory effect on cell proliferation.

[2] = test system: gastric (stomach) cancer (N87) cell line; assay: 72 hr ATP luminescence cell proliferation inhibition assay, N87; details: N87 cells
Procedure: as §1

[3] = test system: ovarian cancer (OVCAR3) cell line; assay: 72 hr ATP luminescence cell proliferation inhibition assay, OVCAR3
Procedure: as §1

[4] = test system: mesothelioma (H226) cancer cell line; assay: 72 hr ATP luminescence cell proliferation inhibition assay, H226
Procedure: as §1

COC(=O)c1cc(NC(=O)c2cc(NC(=O)CCCOc3cc4c(cc3OC)C(=O)N3Cc5ccccc5C[C@H]3C=N4)cn2C)cn1C [(Ib-40)] was tested, and the IC50 ([1]; HCT116 cells) was 0.028 nM, the IC50 [2] was 0.09 nM and the IC50 ([3]; OVCAR3 cells) was 0.16 nM. It also gave an IC50 ([4]; H226 cells) of 0.1 nM.
Work on COc1cc2c(cc1OCCCC(=O)Nc1cc(C(=O)Nc3ccccc3)n(C)c1)N=C[C@@H]1Cc3ccccc3CN1C2=O [(Ib-41)] yielded an IC50 ([1]; HCT116 cells) of 0.022 nM, an IC50 [2] of 0.038 nM and an IC50 ([3]; OVCAR3 cells) of 0.053 nM. For the same molecule, the IC50 ([4]; H226 cells) was 0.083 nM.
Molecule COc1cc2c(cc1OCCCC(=O)Nc1cc(C(=O)NC3CC3)n(C)c1)N=C[C@@H]1Cc3ccccc3CN1C2=O [(Ib-42)] has an IC50 ([1]; HCT116 cells) of 0.38 nM, an IC50 [2] of 0.39 nM and an IC50 ([3]; OVCAR3 cells) of 0.32 nM. The IC50 ([4]; H226 cells) was 0.49 nM.
With COc1cc2c(cc1OCCCC(=O)Nc1cc(C(=O)Nc3ccc(-c4ccccc4)cc3)n(C)c1)N=C[C@@H]1Cc3ccccc3CN1C2=O [(Ib-43)] the IC50 ([1]; HCT116 cells) was 0.008 nM, the IC50 [2] was 0.026 nM and the IC50 ([3]; OVCAR3 cells) was 0.025 nM. It also gave an IC50 ([4]; H226 cells) of 0.013 nM.
COc1cc2c(cc1OCCCC(=O)Nc1cc(C(=O)Nc3ccccn3)n(C)c1)N=C[C@@H]1Cc3ccccc3CN1C2=O [(Ib-44)] was tested, and the IC50 ([1]; HCT116 cells) was 0.045 nM, the IC50 [2] was 0.055 nM and the IC50 ([3]; OVCAR3 cells) was 0.053 nM. For the same molecule, the IC50 ([4]; H226 cells) was 0.085 nM.
For COc1cc2c(cc1OCCCC(=O)Nc1cc(C(=O)Nc3ccc(Cl)cn3)n(C)c1)N=C[C@@H]1Cc3ccccc3CN1C2=O [(Ib-45)], the IC50 ([1]; HCT116 cells) was 0.032 nM, the IC50 [2] was 0.025 nM and the IC50 ([3]; OVCAR3 cells) was 0.01 nM. For the same molecule, the IC50 ([4]; H226 cells) was 0.085 nM.
For COc1cc2c(cc1OCCCC(=O)Nc1cc(C(=O)Nc3cccnc3)n(C)c1)N=C[C@@H]1Cc3ccccc3CN1C2=O [(Ib-46)], the IC50 ([1]; HCT116 cells) was 0.13 nM, the IC50 [2] was 0.12 nM and the IC50 ([3]; OVCAR3 cells) was 0.55 nM. For the same molecule, the IC50 ([4]; H226 cells) was 0.27 nM.
With COc1cc2c(cc1OCCCC(=O)Nc1cc(C(=O)Nc3ccc(Cl)nc3)n(C)c1)N=C[C@@H]1Cc3ccccc3CN1C2=O [(Ib-47)] the IC50 ([1]; HCT116 cells) was 0.019 nM, the IC50 [2] was 0.022 nM and the IC50 ([3]; OVCAR3 cells) was 0.13 nM. For the same molecule, the IC50 ([4]; H226 cells) was 0.13 nM.
With COc1cc2c(cc1OCCCC(=O)Nc1cn(C)c(C(=O)Nc3ccccc3)n1)N=C[C@@H]1Cc3ccccc3CN1C2=O [(Ib-48)] the IC50 ([1]; HCT116 cells) was 0.039 nM, the IC50 [2] was 0.075 nM and the IC50 ([3]; OVCAR3 cells) was 0.094 nM. The IC50 ([4]; H226 cells) was 0.18 nM.
Work on COc1cc2c(cc1OCCCC(=O)Nc1cc(C(=O)Nc3ccc(-c4cc(-c5ncco5)n(C)c4)cc3)n(C)c1)N=C[C@@H]1Cc3ccccc3CN1C2=O [(Ib-49)] yielded an IC50 ([1]; HCT116 cells) of 0.051 nM, an IC50 [2] of 0.16 nM and an IC50 ([3]; OVCAR3 cells) of 0.32 nM. For the same molecule, the IC50 ([4]; H226 cells) was 0.062 nM.
Molecule COc1cc2c(cc1OCCCC(=O)Nc1cc(C(=O)Nc3ccc(OCc4ccccc4)cc3)n(C)c1)N=C[C@@H]1Cc3ccccc3CN1C2=O [(Ib-51)] has an IC50 ([1]; HCT116 cells) of 0.022 nM, an IC50 [2] of 0.037 nM and an IC50 ([3]; OVCAR3 cells) of 0.7 nM. For the same molecule, the IC50 ([4]; H226 cells) was 0.11 nM.
For COc1cc2c(cc1OCCCC(=O)Nc1cc(C(=O)Nc3ccc(N)cc3)n(C)c1)N=C[C@@H]1Cc3ccccc3CN1C2=O [(Ib-52)], the IC50 ([1]; HCT116 cells) was 0.28 nM, the IC50 [2] was 0.45 nM and the IC50 ([3]; OVCAR3 cells) was 0.63 nM. The IC50 ([4]; H226 cells) was 0.3 nM.
COc1cc(-c2ccc(NC(=O)c3cc(NC(=O)CCCOc4cc5c(cc4OC)C(=O)N4Cc6ccccc6C[C@H]4C=N5)cn3C)c(OC)c2)ccc1N [(Ib-53)] showed an IC50 ([1]; HCT116 cells) of 0.098 nM, an IC50 [2] of 0.092 nM and an IC50 ([3]; OVCAR3 cells) of 0.22 nM. It also gave an IC50 ([4]; H226 cells) of 0.13 nM.
In the case of COc1cc2c(cc1OCCCC(=O)Nc1cc(C(=O)Nc3ccc(-c4ccc(N)cc4)cc3)n(C)c1)N=C[C@@H]1Cc3ccccc3CN1C2=O [(Ib-54)], the IC50 ([1]; Homo sapiens, HCT-116, HCT116 cells) is reported as 0.007 nM, the IC50 ([2]; Homo sapiens) is reported as 0.027 nM and the IC50 ([3]; Homo sapiens, OVCAR-3, OVCAR3 cells) is reported as 0.071 nM. It also gave an IC50 ([4]; Homo sapiens, NCI-H226, H226 cells) of 0.05 nM.
Work on COC(=O)c1cc(-c2ccc(NC(=O)c3nc(NC(=O)CCCOc4cc5c(cc4OC)C(=O)N4Cc6ccccc6C[C@H]4C=N5)cn3C)cc2)cn1C [(Ib-55)] yielded an IC50 ([1]; HCT116 cells) of 0.004 nM, an IC50 [2] of less than 0.004 nM and an IC50 ([3]; OVCAR3 cells) of 0.045 nM. The IC50 ([4]; H226 cells) was 0.018 nM.
